Measured values published in ChEMBL document CHEMBL4602715, “Efficacy and Tolerability of Pyrazolo[1,5-a]pyrimidine RET Kinase Inhibitors for the Treatment of Lung Adenocarcinoma” (ACS Med Chem Lett, 2020).
≈ marks a conversion by molar mass, not a printed value. Each block holds one molecule with its values, some of them ahead of it. Calls of active or inactive are those of the source. The rule behind the calls is not given here.

Experiments:
LC-2-ad [1] = test: Cytotoxicity against human LC2/ad cells assessed as reduction in cell viability incubated for 6 days by CellTiter Glo assay; format: cell-based; conditions: 144 h
[2] = Aqueous solubility of compound at pH 6.8 incubated for 24 hrs by HPLC/UV analysis; format: physicochemical
Rattus norvegicus [3] = test: Antitumor activity against rat RIE cells transfected with KIF5B/RET xenografted in Harlan Foxn1 nude mouse assessed as tumor regression at 10 to 60 mg/kg, po qd for 14 days; format: functional, organism-based
Rattus norvegicus [4] = test: Antitumor activity against rat RIE cells transfected with KIF5B/RET xenografted in Harlan Foxn1 nude mouse assessed as reduction in visible vasculature at 10 to 60 mg/kg, po qd for 14 days; format: functional, organism-based
Rattus norvegicus [5] = test: Antitumor activity against rat RIE cells transfected with KIF5B/RET xenografted in Harlan Foxn1 nude mouse assessed as tumor growth inhibition at 1 mg/kg, po qd for 10 days; format: functional, organism-based
Rattus norvegicus [6] = test: Antitumor activity against rat RIE cells transfected with KIF5B/RET xenografted in Harlan Foxn1 nude mouse assessed as tumor stasis at 3 mg/kg, po qd for 10 days; format: functional, organism-based
Rattus norvegicus [7] = test: Antitumor activity against rat RIE cells transfected with KIF5B/RET xenografted in Harlan Foxn1 nude mouse assessed as tumor regression at 10 mg/kg, po qd for 10 days; format: functional, organism-based
Mus musculus [8] = test: In vivo inhibition of KIF5B/RET transfected in rat RIE cells xenografted in Harlan Foxn1 nude mouse assessed as reduction in intratumoral RET phosphorylation at 1 to 3 mg/kg, po qd for 10 days and measured after 5 hrs post-last dose by Western blot analysis; format: functional, organism-based
LC-2-ad [9] = test: Antitumor activity against human LC2/ad cells xenografted in NSG mouse assessed as reduction in tumor volume at 10 mg/kg, po qd for 21 days measured following cessation of drug treatment; format: functional, organism-based
Mus musculus [10] = test: In vivo inhibition of KIF5B/RET transfected in rat RIE cells xenografted in Harlan Foxn1 nude mouse assessed as reduction in intratumoral RET phosphorylation at 1 to 3 mg/kg, po qd for 10 days and measured after 24 hrs post-last dose by Western blot analysis; format: functional, organism-based
[11] = AUC in BALB/c mouse at 5 mg/kg, iv measured upto 24 hrs by LC-MS/MS analysis; format: ADME, organism-based; set-up: dose 5 mg/kg, time < 24 hr, route intravenous; conditions: in vivo
[12] = Cmax in BALB/c mouse at 5 mg/kg, iv measured upto 24 hrs by LC-MS/MS analysis; format: ADME, organism-based; set-up: dose 5 mg/kg, route intravenous; conditions: in vivo
[13] = Half life in BALB/c mouse at 5 mg/kg, iv measured upto 24 hrs by LC-MS/MS analysis; format: ADME, organism-based; conditions: in vivo
[14] = Clearance in BALB/c mouse at 5 mg/kg, iv measured upto 24 hrs by LC-MS/MS analysis; format: ADME, organism-based; conditions: in vivo
[15] = Volume of distribution at steady state in BALB/c mouse at 5 mg/kg, iv measured upto 24 hrs by LC-MS/MS analysis; format: ADME, organism-based; conditions: in vivo, read-out: Vdss
[16] = Toxicity in CD-1 mouse assessed as marginal zone depletion in spleen at 10 mg/kg, po qd for 4 weeks by histopathological analysis; format: organism-based; conditions: in vivo, 672 h
[17] = Toxicity in CD-1 mouse assessed as neuronal changes in brain at 10 mg/kg, po qd for 4 weeks by histopathological analysis; format: organism-based; conditions: in vivo, 672 h
[18] = Toxicity in CD-1 mouse assessed as changes in GI neurons at 10 mg/kg, po qd for 4 weeks by histopathological analysis; format: organism-based; conditions: in vivo, 672 h
[19] = Toxicity in CD-1 mouse assessed as changes in lung at 10 mg/kg, po qd for 4 weeks by histopathological analysis; format: organism-based; conditions: in vivo, 672 h
[20] = Toxicity in CD-1 mouse assessed as pancreatic vacuolation at 10 mg/kg, po qd for 4 weeks by histopathological analysis; format: organism-based; conditions: in vivo, 672 h
[21] = Toxicity in CD-1 mouse assessed as decrease in germinal centre cellularity in lymph nodes at 10 mg/kg, po qd for 4 weeks by histopathological analysis; format: organism-based; conditions: in vivo, 672 h
BaF3 = test: Cytotoxicity against mouse BA/F3 cells assessed as reduction in cell viability incubated for 48 hrs by brightglo-luciferase reporter gene assay; format: cell-based; conditions: BaF3, 48 h
Bcr/Abl fusion protein = Bcr/Abl fusion protein (Homo sapiens, UniProt P00519); test: Inhibition of BCR/ABL (unknown origin) transfected in mouse Ba/F3 cells assessed as reduction in cell viability incubated for 48 hrs by brightglo-luciferase reporter gene assay; format: cell-based, BaF3
Chain of Bcr/Abl fusion protein (P00519 whole entry, the tested form may be a part): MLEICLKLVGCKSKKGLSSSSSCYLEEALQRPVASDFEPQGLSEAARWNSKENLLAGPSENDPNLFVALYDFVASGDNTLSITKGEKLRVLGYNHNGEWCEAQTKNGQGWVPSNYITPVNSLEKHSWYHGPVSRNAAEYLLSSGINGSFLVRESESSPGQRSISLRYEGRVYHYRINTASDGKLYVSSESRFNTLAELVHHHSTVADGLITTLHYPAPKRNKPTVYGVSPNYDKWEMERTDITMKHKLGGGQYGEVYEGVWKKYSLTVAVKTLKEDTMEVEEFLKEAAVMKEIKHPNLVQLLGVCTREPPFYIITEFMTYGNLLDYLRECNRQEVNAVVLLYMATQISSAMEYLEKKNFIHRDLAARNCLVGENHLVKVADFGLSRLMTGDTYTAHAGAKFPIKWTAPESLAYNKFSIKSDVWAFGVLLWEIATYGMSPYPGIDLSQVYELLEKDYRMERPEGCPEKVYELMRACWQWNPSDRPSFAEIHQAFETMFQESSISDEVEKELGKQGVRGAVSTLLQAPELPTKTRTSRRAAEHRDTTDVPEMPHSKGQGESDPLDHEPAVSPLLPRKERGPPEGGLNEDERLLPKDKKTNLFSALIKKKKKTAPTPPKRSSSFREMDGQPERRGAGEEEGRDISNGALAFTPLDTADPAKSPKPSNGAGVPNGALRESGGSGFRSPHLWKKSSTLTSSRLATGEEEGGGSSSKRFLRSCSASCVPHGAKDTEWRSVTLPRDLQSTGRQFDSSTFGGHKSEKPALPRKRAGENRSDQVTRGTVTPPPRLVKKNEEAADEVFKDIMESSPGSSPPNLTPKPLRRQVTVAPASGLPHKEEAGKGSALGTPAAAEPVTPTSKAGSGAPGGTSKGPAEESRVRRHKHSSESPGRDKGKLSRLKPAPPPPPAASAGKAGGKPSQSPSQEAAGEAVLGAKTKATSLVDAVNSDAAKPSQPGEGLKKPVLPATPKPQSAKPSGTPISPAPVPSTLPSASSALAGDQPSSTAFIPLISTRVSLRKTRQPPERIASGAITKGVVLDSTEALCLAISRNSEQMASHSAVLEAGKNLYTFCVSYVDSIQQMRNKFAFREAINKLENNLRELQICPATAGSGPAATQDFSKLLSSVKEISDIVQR
Chain of Bcr/Abl fusion protein (P11274 whole entry, further chain, the tested form may be a part): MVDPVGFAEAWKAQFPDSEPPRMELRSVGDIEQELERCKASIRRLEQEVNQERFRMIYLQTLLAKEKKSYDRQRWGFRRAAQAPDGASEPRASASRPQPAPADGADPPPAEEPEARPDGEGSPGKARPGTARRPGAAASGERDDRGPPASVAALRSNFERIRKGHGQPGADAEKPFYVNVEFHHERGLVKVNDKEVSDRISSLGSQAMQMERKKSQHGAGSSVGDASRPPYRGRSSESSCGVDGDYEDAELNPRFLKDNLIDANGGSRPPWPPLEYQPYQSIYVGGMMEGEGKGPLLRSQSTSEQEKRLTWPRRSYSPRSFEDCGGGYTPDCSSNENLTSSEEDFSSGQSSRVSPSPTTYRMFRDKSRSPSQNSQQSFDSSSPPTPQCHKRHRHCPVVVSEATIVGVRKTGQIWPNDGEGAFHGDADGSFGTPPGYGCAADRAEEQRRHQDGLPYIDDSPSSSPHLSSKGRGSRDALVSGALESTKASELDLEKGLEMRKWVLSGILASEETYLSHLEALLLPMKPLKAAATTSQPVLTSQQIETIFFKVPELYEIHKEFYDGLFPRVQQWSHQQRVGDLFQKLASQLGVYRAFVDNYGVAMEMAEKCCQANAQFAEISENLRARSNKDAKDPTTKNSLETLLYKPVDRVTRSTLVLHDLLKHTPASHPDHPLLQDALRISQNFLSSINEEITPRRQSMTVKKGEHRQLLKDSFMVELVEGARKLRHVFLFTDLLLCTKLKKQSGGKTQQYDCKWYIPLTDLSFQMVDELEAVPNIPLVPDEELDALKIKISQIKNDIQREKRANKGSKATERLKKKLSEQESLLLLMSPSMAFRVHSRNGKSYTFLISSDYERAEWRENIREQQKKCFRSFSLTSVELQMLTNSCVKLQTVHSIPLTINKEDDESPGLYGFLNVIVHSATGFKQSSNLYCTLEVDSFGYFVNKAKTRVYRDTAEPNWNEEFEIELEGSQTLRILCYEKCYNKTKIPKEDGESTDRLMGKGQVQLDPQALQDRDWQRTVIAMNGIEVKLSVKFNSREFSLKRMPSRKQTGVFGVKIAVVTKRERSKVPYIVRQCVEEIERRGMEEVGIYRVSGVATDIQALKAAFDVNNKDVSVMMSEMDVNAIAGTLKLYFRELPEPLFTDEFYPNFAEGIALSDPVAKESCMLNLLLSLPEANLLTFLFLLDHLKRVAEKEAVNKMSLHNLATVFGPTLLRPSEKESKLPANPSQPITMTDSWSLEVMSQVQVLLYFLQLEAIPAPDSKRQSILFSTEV

[22] = Clearance in BALB/c mouse at 2 mg/kg, iv measured upto 24 hrs by LC-MS/MS analysis; format: ADME, organism-based; conditions: in vivo
[23] = Volume of distribution at steady state in BALB/c mouse at 2 mg/kg, iv measured upto 24 hrs by LC-MS/MS analysis; format: ADME, organism-based; conditions: in vivo, read-out: Vdss
[24] = Half life in BALB/c mouse at 2 mg/kg, iv measured upto 24 hrs by LC-MS/MS analysis; format: ADME, organism-based; conditions: in vivo
[25] = AUC in BALB/c mouse at 2 mg/kg, iv measured upto 24 hrs by LC-MS/MS analysis; format: ADME, organism-based; set-up: dose 2 mg/kg, time < 24 hr, route intravenous; conditions: in vivo
[26] = Cmax in BALB/c mouse at 2 mg/kg, iv measured upto 24 hrs by LC-MS/MS analysis; format: ADME, organism-based; set-up: dose 2 mg/kg, route intravenous; conditions: in vivo
[27] = Half life in BALB/c mouse at 10 mg/kg, po measured upto 24 hrs by LC-MS/MS analysis; format: ADME, organism-based; conditions: in vivo
[28] = AUC in BALB/c mouse at 10 mg/kg, po measured upto 24 hrs by LC-MS/MS analysis; format: ADME, organism-based; set-up: dose 10 mg/kg, time < 24 hr, route oral; conditions: in vivo
[29] = Cmax in BALB/c mouse at 10 mg/kg, po measured upto 24 hrs by LC-MS/MS analysis; format: ADME, organism-based; set-up: dose 10 mg/kg, route oral; conditions: in vivo
[30] = Oral bioavailability in BALB/c mouse at 10 mg/kg measured upto 24 hrs by LC-MS/MS analysis; format: ADME, organism-based; conditions: in vivo
[31] = molecular target: T1, Voltage-gated inwardly rectifying potassium channel KCNH2 (Homo sapiens, UniProt Q12809); test: Displacement of [3H]-dofetilide from human ERG expressed in CHO cells incubated for 90 mins by microbeta scintillation counting method; format: cell-based
T1 sequence (Q12809 whole entry): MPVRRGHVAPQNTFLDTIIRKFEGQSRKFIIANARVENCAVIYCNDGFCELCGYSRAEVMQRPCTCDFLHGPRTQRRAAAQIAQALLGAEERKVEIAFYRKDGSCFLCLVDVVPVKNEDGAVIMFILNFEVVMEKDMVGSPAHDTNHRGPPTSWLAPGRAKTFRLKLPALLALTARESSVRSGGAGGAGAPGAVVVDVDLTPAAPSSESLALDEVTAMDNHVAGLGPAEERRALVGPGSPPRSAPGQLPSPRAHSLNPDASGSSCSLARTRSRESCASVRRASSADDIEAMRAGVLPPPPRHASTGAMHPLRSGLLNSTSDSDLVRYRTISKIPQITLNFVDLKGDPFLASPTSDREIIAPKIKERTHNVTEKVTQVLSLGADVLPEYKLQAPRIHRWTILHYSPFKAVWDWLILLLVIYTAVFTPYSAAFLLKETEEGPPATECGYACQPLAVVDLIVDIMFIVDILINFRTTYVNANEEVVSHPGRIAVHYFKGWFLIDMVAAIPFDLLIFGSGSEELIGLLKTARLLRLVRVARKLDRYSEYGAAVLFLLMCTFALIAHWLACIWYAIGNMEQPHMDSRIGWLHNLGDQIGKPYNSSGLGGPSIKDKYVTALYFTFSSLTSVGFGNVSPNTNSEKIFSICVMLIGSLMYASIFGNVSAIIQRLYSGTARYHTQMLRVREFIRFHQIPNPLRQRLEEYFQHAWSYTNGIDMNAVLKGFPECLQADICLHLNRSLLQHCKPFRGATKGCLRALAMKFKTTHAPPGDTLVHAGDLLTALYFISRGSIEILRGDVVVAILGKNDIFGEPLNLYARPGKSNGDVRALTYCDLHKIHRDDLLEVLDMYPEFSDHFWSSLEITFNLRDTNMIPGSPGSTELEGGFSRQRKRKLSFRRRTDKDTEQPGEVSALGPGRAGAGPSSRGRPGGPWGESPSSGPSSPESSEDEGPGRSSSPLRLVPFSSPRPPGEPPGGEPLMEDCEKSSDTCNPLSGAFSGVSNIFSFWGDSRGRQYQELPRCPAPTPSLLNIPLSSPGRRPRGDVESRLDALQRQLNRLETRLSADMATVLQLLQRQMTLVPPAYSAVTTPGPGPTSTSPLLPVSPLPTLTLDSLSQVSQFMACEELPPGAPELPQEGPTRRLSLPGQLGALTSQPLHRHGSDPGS

[32] = molecular target: T1, Voltage-gated inwardly rectifying potassium channel KCNH2; test: Inhibition of human ERG expressed in human embryonic kidney cells by manual patch clamp assay; format: cell-based
[33] = Toxicity in Harlan Foxn1 nude mouse xenografted with rat RIE cells transfected with KIF5B/RET assessed as lungs hemorrhaging at 10 to 60 mg/kg, po administered bid for 8 days; format: organism-based; conditions: in vivo, 192 h
[34] = Toxicity in Harlan Foxn1 nude mouse xenografted with rat RIE cells transfected with KIF5B/RET assessed as hypothermia at 10 to 60 mg/kg, po administered bid for 8 days; format: organism-based; conditions: in vivo, 192 h
[35] = Toxicity in Harlan Foxn1 nude mouse xenografted with rat RIE cells transfected with KIF5B/RET assessed as lungs hemorrhaging at 3 mg/kg, po administered bid for 8 days; format: organism-based; conditions: in vivo, 192 h
[36] = Toxicity in Harlan Foxn1 nude mouse xenografted with rat RIE cells transfected with KIF5B/RET assessed as hypothermia at 3 mg/kg, po administered bid for 8 days; format: organism-based; conditions: in vivo, 192 h

Structure (SMILES): COc1ccc(-c2cnn3c(N)c(-c4ccccc4)c(NC4CC(C)(C)N(C)C(C)(C)C4)nc23)cc1OC [listing 1 of 2 here]
- Activity (Rattus norvegicus [3]): Active
- Activity (Rattus norvegicus [4]): Active
- Activity (Rattus norvegicus [5]): Active
- Activity (Rattus norvegicus [6]): Active
- Activity (Rattus norvegicus [7]): Active
- inhibition (Mus musculus [8]): Active
- Activity (LC-2-ad [9]): Active
- inhibition (Mus musculus [10]): inactive

Structure (SMILES): COc1ccc(-c2cnn3c(N)c(-c4ccccc4)c(NC4CC(C)(C)N(C)C(C)(C)C4)nc23)cc1OC [listing 2 of 2 here]
- AUC at 24 h [11]: 3.2 µM·h
- Cmax [12]: 1100 nM
- half-life [13]: 3.9 h
- clearance [14]: 51 mL/min/kg
- Vd [15]: 13 L/kg
- IC50 (LC-2-ad [1]): 1500 nM
- solubility at 24 h [2]: 48 µM (≈ 24.7 µg/mL)
- Activity [16]: Toxic
- Activity [17]: Non-Toxic
- Activity [18]: Non-Toxic
- Activity [19]: Non-Toxic
- Activity [20]: Toxic
- Activity [21]: Toxic

Structure (SMILES): COc1ccc(-c2cnn3c(N)c(-c4ccccc4)c(OC4CCNCC4)nc23)cc1OC
- IC50 (LC-2-ad [1]): 2700 nM
- solubility at 24 h [2]: 47 µM (≈ 20.9 µg/mL)

Structure (SMILES): COc1ccc(-c2cnn3c(N)c(-c4nccs4)c(OC4CCN(C)CC4)nc23)cc1OC
- IC50 (BaF3): > 11000 nM
- IC50 (Bcr/Abl fusion protein): > 10000 nM

Structure (SMILES): CN1C(C)(C)CC(Nc2nc3c(-c4ccc(C(=O)N5CCN(S(C)(=O)=O)CC5)cc4)cnn3c(N)c2-c2ccccc2)CC1(C)C
- IC50 (LC-2-ad [1]): 2800 nM
- clearance [22]: 110 mL/min/kg
- Vd [23]: 11 L/kg
- half-life [24]: 1.6 h
- AUC at 24 h [25]: 0.49 µM·h
- Cmax [26]: 450 nM
- half-life [27]: 2.2 h
- AUC at 24 h [28]: 0.34 µM·h
- Cmax [29]: 100 nM
- bioavailability [30]: 14%

Structure (SMILES): COC(=O)Nc1ccc(-c2c(OC3CCN(C)CC3)nc3c(-c4ccc(OC)c(OC)c4)cnn3c2N)cc1
- IC50 (BaF3): 5000 nM
- IC50 (Bcr/Abl fusion protein): 5100 nM

Structure (SMILES): COC(=O)N1CCN(C(=O)c2ccc(-c3cnn4c(N)c(-c5ccccc5)c(NC5CC(C)(C)N(C)C(C)(C)C5)nc34)cc2)CC1
- IC50 (LC-2-ad [1]): 1300 nM
- clearance [22]: 19 mL/min/kg
- Vd [23]: 5.1 L/kg
- half-life [24]: 3.7 h
- AUC at 24 h [25]: 2.8 µM·h
- Cmax [26]: 940 nM
- half-life [27]: 3.7 h
- AUC at 24 h [28]: 8.7 µM·h
- Cmax [29]: 820 nM
- bioavailability [30]: 62%
- IC50 [31]: 7500 nM
- IC50 [32]: Not Active
- Activity [33]: Toxic
- Activity [34]: Toxic
- Activity [35]: Non-Toxic
- Activity [36]: Non-Toxic

Further lines, with some results ahead:

- solubility at 24 h [2]: 85 µM (≈ 39 µg/mL)
Structure (SMILES): COc1ccc(-c2cnn3c(N)c(-c4ccccc4)c(NC4CCN(C)CC4)nc23)cc1OC
- IC50 (LC-2-ad [1]): 5500 nM

- solubility at 24 h [2]: 88 µM (≈ 39.4 µg/mL)
Structure (SMILES): COc1ccc(-c2cnn3c(N)c(-c4ccccc4)c(OCCCN(C)C)nc23)cc1OC
- IC50 (LC-2-ad [1]): 2800 nM

- solubility at 24 h [2]: > 175 µM
Structure (SMILES): COc1ccc(-c2cnn3c(N)c(-c4ccccc4)c(NCCCN(C)C)nc23)cc1OC
- IC50 (LC-2-ad [1]): > 10000 nM

- solubility at 24 h [2]: 7.1 µM (≈ 3.26 µg/mL)
Structure (SMILES): COc1ccc(-c2cnn3c(N)c(-c4ccccc4)c(OC4CCN(C)CC4)nc23)cc1OC
- IC50 (BaF3): > 11000 nM
- IC50 (Bcr/Abl fusion protein): 870 nM
- IC50 (LC-2-ad [1]): 1600 nM
